Data: patent US20210171577A1, “COMBINATORIAL ANTIBIOTIC DERIVATIVES BASED ON SUPRAMOLECULAR STRUCTURES” (priority 2017, published 2021)
“And” between values parts separate entries of the source, which are not always exact repeats. Equal entries are not always repeated. Marks after values point to notes of the source that are not given here.

What was measured:
Escherichia coli IMI2001 [1] = experiment: Neutropenic peritonitis/sepsis model in mice, dose response (Example 5); type: in vivo, NMRI mice
Method: The objective of this study was to study the dose response relationship after intravenous (iv) administration of a single dose of SKPA (CBT) in the range of 0.1612 mg/kg. The effect was investigated against resistant E. coli IMI2001 in a neutropenic peritonitis model. Administration of meropenem at a dose of 40 mg/kg was included as a positive control group. The number of colonies in the blood and peritoneal fluid was determined 5 hours after administration. The mouse peritonitis/sepsis model is a well-known model for antimicrobial activity studies as described by N. FrimodtMoller and J. D.
30 female outbred NMRI mice, 2530 grams (Harlan Scandinavia).
Escherichia coli IMI2001 from IMINAMN, Kharkov, Ukraine. Clinical isolate from a human wound from 2003 with multidrug resistance (to ampicillin, ceftazidime, aztreonam, gentamicin, ciprofloxacin).
ASCA in Ringer's acetate, pH 6, 1.2 mg/ml, 6.0 ml. The solution was stored at 4° C. until use. The analyzes of the compositions used for administration were performed at the end of the phase of the study conducted on live animals, and the following results were obtained in these analyzes.
(§1) The introduction of cyclophosphamide to mice. Neutropenia was induced in mice by injection of 0.5 ml of cyclophosphamide solution intraperitoneally 4 days (200 mg/kg) and 1 day (100 mg/kg) before infection.
(§2) Infection of mice. Fresh E. coli IMI2001 colonies obtained overnight in an agar plate and 5% horse blood were suspended and diluted in sterile saline to approximately 2×10^6 CFU/ml. One hour before the start of administration (time point 1 h), mice were intraperitoneally infected with 0.5 ml of a suspension of E. coli in the lateral lower quadrant of the abdomen. Approximately 0.51 hours after the administration, 45 μl of neurofen (20 mg ibuprofen per ml, corresponding to 30 mg/kg) was orally administered to the mice as a painkiller.
The introduction of drugs to mice. Mice were given a single intravenous administration of CBT, meropenem, or excipient into the lateral tail vein for approximately 30 seconds in a volume of 10 ml/kg at time 0 h (see Table 1). The dose determination was based on an average body weight of 30 g. Mice with a body weight of 2832 g were injected with 0.30 ml of solution. Mice weighing 2728 g were injected with 0.25 ml of the solution and mice weighing 32.136 g were injected with 0.35 ml of the solution.
T indicates time relative to administration. The numbers in the columns of the sampling represent the identification numbers of mice. Clinical scoring of mice. Mice were observed during the study and assigned them scores from 0 to 5 depending on their behavior and clinical signs.
The number of colonies was determined in blood and peritoneal fluid for 0 and 5 hours. Mice were anesthetized with CO2+O2 and blood was taken from an axillary incision into Eppendorf tubes coated with ethylene diamine tetraacetic acid (EDTA). Mice were sacrificed immediately after blood sampling, and a total of 2 ml of sterile physiological saline was administered intraperitoneally and a gentle massage of the abdomen was performed until it was opened and the fluid samples were pipetted. Then, each sample was diluted 10 times in physiological saline and drops of 20 μl were applied to blue agar plates. All agar plates were incubated for 1822 hours at 35° C. in air.
Results. The number of colonies was determined at the beginning of administration and 5 hours after administration. Before the calculations, a log 10 transformation of the CFU count was performed.
Dose response curves (data not shown) were calculated in GraphPad Prism using a sigmoid dose response curve (variable angle). […] The maximum effect of CBT, Emax, was determined as the difference in log CFU in the absence of response and at the maximum response. The lack of response was characterized as the number of colonies at a level determined in mice that were injected with vehicle. […]

Escherichia coli IMI2001 [2] = experiment: Peritonitis/sepsis model in neutropenic NMRI mice, effect over time at 7.5 mg/kg (Example 6); type: in vivo
Method: The objective of this study was to investigate the effectiveness of CPR in vivo after intravenous (iv) administration of a single dose of 7.5 mg/kg. The effect was tested against Escherichia coli IMI2001 in a peritonitis model in neutropenia NMRI mice to avoid the use of mucin, which is commonly used in a mouse peritonitis model. Neutropenia was induced in mice by injection of cyclophosphamide. Administration of meropenem at a dose of 40 mg/kg was included as a positive control group and vehicle administration was included as a negative control group. The number of colonies in peritoneal fluid and blood was determined 2 and 5 hours after administration.
30 female outbred mice NMRI, 2832 grams (Kiev).
Escherichia coli IMI2001 from IMINAMN, Ukraine, Kharkov. Clinical isolate from a human wound from 2013 with multidrug resistance (to ampicillin, ceftazidime, aztreonam, gentamicin, ciprofloxacin).
PPC in Ringer's acetate, pH 6, 1.2 ml, 0.75 mg/ml.
as §1
as §2, with “AID #172” for “IMI2001”, “2.5 h” for “Approximately 0.51 hours”, “administration with significant clinical signs of infection, mice were orally administered” for “the administration,”, “which corresponded” for “corresponding”, “mg/kg)” for “mg/kg) was orally administered to the mice”
Score mice. At each sampling in mice, a clinical assessment of the clinical signs of infection was performed.
The introduction of drugs to mice. The mice were given a single intravenous administration of CPR, meropenem, or excipient into the lateral tail vein for approximately 30 seconds at a time point of 0 h (see Table 6). The dose determination was based on an average body weight of 30 g. Mice with a body weight of 2832 g were injected with 0.30 ml of solution. Mice weighing 2728 g were injected with 0.25 ml of the solution and mice weighing 32.136 g were injected with 0.35 ml of the solution. Mice 17 accidentally injected 0.35 ml, despite the fact that its body weight was 29.5 g.
Fence samples. The number of colonies was determined in blood and peritoneal fluid at 0, 2 and 5 hours after administration according to Table 6.
Mice were anesthetized with CO2+O2 and blood sampling was performed from a section in the axillary region. The mice were sacrificed by cervical dislocation and a total of 2 ml of sterile physiological saline was injected intraperitoneally and a gentle massage of the abdomen was performed, then it was opened and a sample of the fluid was pipetted. Each sample was diluted 10 times in saline and drops of 20 μl were applied to plates with blood agar. All agar plates were incubated for 1822 hours at 35° C. in air.

Escherichia coli IMI2001 [3] = experiment: Model of hip (femoral) infection with neutropenia in mice (Example 7); type: in vivo, NMRI mice
Method: Introduction The objective of this study was to study the dose response after intravenous (iv) administration of a single dose of CPR in the range of 0.1612 mg/kg. The effect was investigated against E. coli IMI2001 in a model of femoral infection with neutropenia. Administration of meropenem at a dose of 40 mg/kg was included as a positive control group. The number of colonies in the hips was determined 5 hours after administration. The hip infection model is a well-known model for studies of the antimicrobial effect and tissue penetration, as described by S. Gudmundsson & N. Erlensdottir: Handbook of Animal Models of Infection (1999), ed. by O. Zak & M. A. Sande, Academic Press, San Diego, US, and some other publications. See the review by D. Andes & C. Craig: Animal model pharmacokinetics and pharmacodynamics: a critical review. International Journal of Antimicrobial Agents, 19 (4): 261268.
Materials and methods. 40 female outbred mice NMRI, 2530 grams (Kiev, Ukraine). Escherichia coli IMI2001 from IMINAMN, Kharkov, Ukraine. Clinical isolate from a human wound from […] with multidrug resistance (to ampicillin, ceftazidime, aztreonam, gentamicin, ciprofloxacin).
PPC in Ringer's acetate, pH 6, 1.2 mg/ml, 6.0 ml. The solution was stored at 4° C. until use. The analyzes of the compositions used for administration were performed at the end of the phase of the study conducted on live animals, and the following results were obtained in these analyzes.
as §1
Infection of mice. […]
The number of colonies was determined in the hips at 0 and 5 h. […]
Results. The number of colonies was determined at the beginning of administration and 5 hours after administration. […] CFU/ml in the infectious material was determined to be 7.35 log 10, which corresponds to […]. […]

[4] = test system: multiresistant strains of microorganisms and fungi; experiment: Antimicrobial activity in vitro, collection of multiresistant test strains (summary statements); type: cell-based; conditions: resistant fungal strains
[5] = Meropenem 40 mg/kg single iv, T = 5 h, individual mice
[6] = Meropenem 40 mg/kg single iv, T = 5 h, p < 0.01 vs filler
[7] = Meropenem 40 mg/kg single iv, individual mice, score 0-5
[8] = Meropenem 40 mg/kg single iv, 2 h
[9] = Meropenem 40 mg/kg single iv, 5 h
[10] = Meropenem 40 mg/kg single iv, T = 2 h, individual mice

In the case of `C[C@@H](O)[C@H]1C(=O)N2C(C(=O)O)=C(S[C@@H]3CN[C@H](C(=O)N(C)C)C3)[C@H](C)[C@H]12` [Meropenem, meropenem], the “log10 CFU Blood” value (Escherichia coli IMI2001 [1]; [5]) is reported as 2.48 log10 CFU and 1.70 log10 CFU and 2.95 log10 CFU, the “log10 CFU PF” value (Escherichia coli IMI2001 [1]; [5]) is reported as 3.92 log10 CFU and 1.70 log10 CFU and 2.30 log10 CFU and the “log10 CFU Average in PF” value (Escherichia coli IMI2001 [1]; [6]) is reported as 2.64 log10 CFU. For the same compound, the “log10 CFU Blood average” value (Escherichia coli IMI2001 [1]; Meropenem 40 mg/kg single iv, T = 5 h, p < 0.05 vs filler) was 2.38 log10 CFU, the “Clinical Score T = 5 h” value (Escherichia coli IMI2001 [1]; [7]) was 1 (2×) and 0 and the “CFU compared with excipient, blood (p<0.05) and peritoneal fluid (p<0.01)” value (Escherichia coli IMI2001 [1]; meropenem 40 mg/kg iv, 5 h) was “significant decrease”. For the same compound, the “Difference in CFU level compared with filler, blood” value (Escherichia coli IMI2001 [2]; [8]) was “blood −0.82 log CFU/ml”, the “Difference in CFU level compared with filler, peritoneum” value (Escherichia coli IMI2001 [2]; [8]) was 2 h: peritoneum −1.51 log CFU/ml and the “Difference in CFU level compared with filler, blood” value (Escherichia coli IMI2001 [2]; [9]) was “blood −1.64 log CFU/ml”. For the same compound, the “Difference in CFU level compared with filler, peritoneum” value (Escherichia coli IMI2001 [2]; [9]) was 5 h: peritoneum −1.51 log CFU/ml, the “log10 CFU Blood (group average)” value (Escherichia coli IMI2001 [2]; Meropenem 40 mg/kg single iv, T = 2 h) was 3.76 log10 CFU and the “log10 CFU Blood” value (Escherichia coli IMI2001 [2]; [10]) was 3.60 log10 CFU and 3.57 log10 CFU and 4.11 log10 CFU. The “log10 CFU PF” value (Escherichia coli IMI2001 [2]; [10]) was 4.12 log10 CFU and 3.40 log10 CFU and 4.24 log10 CFU, the “log10 CFU PF (group average)” value (Escherichia coli IMI2001 [2]; Meropenem 40 mg/kg single iv, T = 2 h, p < 0.01 vs filler) was 3.92 ** log10 CFU and the “log10 CFU Blood” value (Escherichia coli IMI2001 [2]; [5]) was 3.20 log10 CFU and 2.85 log10 CFU and 3.26 log10 CFU. The “log10 CFU PF” value (Escherichia coli IMI2001 [2]; [5]) was 4.38 log10 CFU and 4.00 log10 CFU and 4.26 log10 CFU, the “log10 CFU Blood (group average)” value (Escherichia coli IMI2001 [2]; [6]) was 3.10** log10 CFU and the “log10 CFU PF (group average)” value (Escherichia coli IMI2001 [2]; [6]) was 4.21 ** log10 CFU. For the same compound, the “Score T = 2 h” value (Escherichia coli IMI2001 [2]; [7]) was 1, the “Score T = 5 h” value (Escherichia coli IMI2001 [2]; [7]) was 0 and the “significant decrease of CFU compared with filler group” value (Escherichia coli IMI2001 [2]; meropenem 40 mg/kg, 2 hours after administration) was “only in the peritoneal fluid”. For the same compound, the “CFU compared with filler group, blood and peritoneal fluid” value (Escherichia coli IMI2001 [2]; meropenem 40 mg/kg, after 5 hours, p<0.01) was “significant decrease”, the “log10 CFU, hip, The average” value (Escherichia coli IMI2001 [3]; Meropenem 40 mg/kg single iv, T = 5 h) was 4.25 log10 CFU and the “log10 CFU, hip” value (Escherichia coli IMI2001 [3]; Meropenem 40 mg/kg single iv, T = 5 h, individual mice, smallest value of group excluded from average) was 4.99 log10 CFU and 3.94 log10 CFU. For the same compound, the “CFU compared with vehicle, hip” value (Escherichia coli IMI2001 [3]; meropenem 40 mg/kg iv, 5 h) was “definite but insignificant decrease”.
`C[C@@H]1[C@H](O)[C@@H](C)/C=C/C=C/C=C/C=C/C=C/C=C/C=C/[C@H](O[C@@H]2O[C@H](C)[C@@H](O)[C@H](N)[C@@H]2O)C[C@@H]2O[C@](O)(C[C@@H](O)C[C@@H](O)[C@H](O)CC[C@@H](O)C[C@@H](O)CC(=O)O[C@H]1C)C[C@H](O)[C@H]2C(=O)O` [amphotericin] was tested, and the antifungal activity [4] was “did not exert antifungal activity”.
`C[C@@H]1[C@H](O)[C@@H](C)/C=C/C=C/CC/C=C/C=C/C=C/C=C/C(O[C@H]2O[C@H](C)[C@@H](O)[C@H](N)[C@@H]2O)CC2O[C@](O)(CC(O)C(O)CCC(O)CC(O)CC(O)CC(=O)O[C@H]1C)CC(O)C2C(=O)O` (stereo partly drawn) [nystatin] was tested, and the antifungal activity [4] was “did not exert antifungal activity”.
